# Assay results published in patent US20230138395A1, “PHARMACEUTICAL COMPOSITIONS OF A THERAPEUTIC POLYENE MACROLIDE AND METHODS OF THEIR USE” (priority 2020, published 2023).
# Where “and” joins values, the source holds several entries; their conditions need not be identical. Equal entries are not always repeated. Where two headings read alike, the source gives them in different places.
# Key:
# [1] = system: C. parapsilosis; experiment: MIC testing (CLSI M27-A3); format: cell-based; parameters: MIC: unit not given beside the values; conditions: for MIC50 / MIC90: C. parapsilosis; for MIC50: inhibits 50% of strains; for MIC90: inhibits 90% of strains; for MIC: individual C. parapsilosis strain with elevated MICs to non-polyene comparators (Table 22)
# [2] = system: all Candida strains; experiment: MFC determination, summary; format: cell-based; conditions: for MFC50: kills 50% of strains; for MFC90: kills 90% of strains
# [3] = system: Candida albicans SC5314; experiment: Disseminated candidiasis in immunocompromised murine model (BALB/c mice): tissue fungal burden; format: in vivo; conditions: Experiment I, 7 days
# [4] = system: all Aspergillus strains tested; experiment: MFC determination, summary; format: cell-based; conditions: for MFC50: kills 50% of strains; for MFC90: kills 90% of strains
# [5] = system: all Aspergillus strains tested; experiment: MIC testing (CLSI M38-A2), summary; format: cell-based; conditions: caspofungin read as MEC; for MIC50: inhibits 50% of strains; for MIC90: inhibits 90% of strains
# [6] = system: individual Aspergillus spp. (Table 13, species not given); experiment: MFC determination, Table 13; format: cell-based; conditions: Aspergillus sp. of Table 13; for MFC50: kills 50% of strains; for MFC90: kills 90% of strains
# [7] = system: individual Aspergillus spp. (Table 12, species not named); experiment: MIC testing (CLSI M38-A2), Table 12; format: cell-based; conditions: Aspergillus sp. of Table 12, caspofungin read as MEC; for MIC50: inhibits 50% of strains; for MIC90: inhibits 90% of strains
# [8] = system: all Candida strains; experiment: MIC testing (CLSI M27-A3), summary; format: cell-based; conditions: for MIC50: inhibits 50% of strains; for MIC90: inhibits 90% of strains
# [9] = system: Cr. neoformans strains; experiment: MFC determination; format: cell-based, Cryptococcus neoformans; conditions: for MFC50 / MFC90: Cr. neoformans; for MFC50: kills 50% of strains; for MFC90: kills 90% of strains
# [10] = system: Fusarium strains; experiment: MIC testing (CLSI M38-A2), Table 17; format: cell-based, Fusarium spp.; conditions: Fusarium strains (Table 17); for MIC50: inhibits 50% of strains; for MIC90: inhibits 90% of strains
# [11] = system: A. fumigatus AF91; experiment: In vitro activity (MIC) against the infecting strain, Example 17; format: cell-based, Aspergillus fumigatus; conditions: Aspergillus fumigatus, minimum effective concentration, read-out: MIC read as MEC
# Procedure: Minimum Inhibitory Concentration: MIC testing was performed according to the Clinical and Laboratory Standards Institute (CLSI) M27-A3 and M38-A2 standards for the susceptibility testing of yeasts and filamentous fungi, respectively (Cryptococcus isolates were incubated for 72 h). For yeast strains, the incubation temperature and time were 35° C. and 24-48 h, respectively, and the inoculum size was 0.5-2.5×10^3 CFU/ml. For filamentous strains, the inoculum size was 0.4-5×10^4 CFU/ml, and the incubation time was strain and drug specific. RPMI 1640 was the test medium throughout, with the exception of the use of YNB for Cryptococcus. Inhibition endpoints for compound 1A were recorded at 50% and 100% after both 24 h and 48 h incubation; caspofungin results against Aspergillus strains were read as minimum effective concentrations (MEC), the lowest concentration that leads to small, rounded, compact growth as compared to the confluent growth of the control.
# [12] = system: individual Aspergillus spp. (Table 15, species not named); experiment: MFC determination, Table 15; format: cell-based; conditions: Aspergillus sp. of Table 15; for MFC50: kills 50% of strains; for MFC90: kills 90% of strains
# [13] = system: Penicillium strains; experiment: MFC determination; format: cell-based, Penicillium spp.; conditions: for MFC50: kills 50% of strains; for MFC90: kills 90% of strains
# [14] = system: individual Aspergillus spp. (Table 12, species not named); experiment: MFC determination, Table 12; format: cell-based; conditions: Aspergillus sp. of Table 12; for MFC50: kills 50% of strains; for MFC90: kills 90% of strains
# [15] = system: C. krusei strains; experiment: MIC testing (CLSI M27-A3); format: cell-based; conditions: for MIC Range: C. krusei strains, in µg/mL; for MIC50 / MIC90: C. krusei; for MIC50: inhibits 50% of strains; for MIC90: inhibits 90% of strains; for MIC: individual C. krusei strain with elevated MICs to non-polyene comparators (Table 22)
# [16] = system: A. fumigatus AF91; experiment: In vitro activity (MFC) against the infecting strain, Example 17; format: cell-based, Aspergillus fumigatus; conditions: Aspergillus fumigatus, read-out: MFC
# Procedure: Minimum Fungicidal Concentration: MFC determinations were performed according to the modifications previously described by Canton et al., Diagn. Microbiol. Infect. Dis., 45:203-206, 2003, and Ghannoum and Isham, Infectious Diseases in Clinical Practice, 15(4):250-253, 2007.
# Specifically, the total contents of each clear well from the MIC assay were subcultured onto potato dextrose agar. To avoid antifungal carryover, the aliquots were allowed to soak into the agar and then were streaked for isolation once dry, thus removing the cells from the drug source. Fungicidal activity is defined as ≥99.9% reduction in the number of colony forming units (CFU)/ml from the starting inoculum count, while fungistatic activity is defined as <99.9% reduction. […] MIC and MFC values are considered to be equivalent if they are within 2 dilutions.
# [17] = system: Candida albicans; experiment: MIC testing (CLSI M27-A3); format: cell-based; parameters: MIC: unit not given beside the values; conditions: for MIC Range: in µg/mL; for MIC50: inhibits 50% of strains; for MIC90: inhibits 90% of strains; for MIC: individual C. albicans strain with elevated MICs to non-polyene comparators (Table 22)
# [18] = system: Aspergillus fumigatus AF91; experiment: Disseminated Aspergillosis in immunocompromised murine model (CD-1 mice): tissue fungal burden; conditions: Experiment I; 1.0 mg/kg i.v., 7 days
# [19] = system: C. parapsilosis; experiment: MFC determination; format: cell-based; conditions: for MFC50 / MFC90: C. parapsilosis; for MFC50: kills 50% of strains; for MFC90: kills 90% of strains; for MFC: individual C. parapsilosis strain with elevated MICs to non-polyene comparators (Table 22)
# [20] = system: C. krusei strains; experiment: MFC determination; format: cell-based; conditions: for MFC50 / MFC90: C. krusei; for MFC50: kills 50% of strains; for MFC90: kills 90% of strains; for MFC: individual C. krusei strain with elevated MICs to non-polyene comparators (Table 22)
# [21] = system: C. albicans SC5314; experiment: In vitro activity (MIC) against the infecting strain, Example 18; format: cell-based, Candida albicans; conditions: Candida albicans
# [22] = system: Fusarium strains; experiment: MFC determination, Table 17; format: cell-based, Fusarium spp.; conditions: Fusarium strains (Table 17); for MFC Range: in µg/mL; for MFC50: kills 50% of strains; for MFC90: kills 90% of strains
# [23] = C. parapsilosis strains, in µg/mL
# [24] = Fluconazole-susceptible C. albicans n = 13
smiles,measurement,setting,value
"CC[C@H](C)C[C@H](C)CCCCCCCCC(=O)N[C@H]1C[C@@H](O)[C@@H](NCCN)NC(=O)[C@@H]2[C@@H](O)CCN2C(=O)[C@H]([C@H](O)CCN)NC(=O)[C@H]([C@H](O)[C@@H](O)c2ccc(O)cc2)NC(=O)[C@@H]2C[C@@H](O)CN2C(=O)[C@H]([C@@H](C)O)NC1=O [Caspofungin, caspofungin]",MIC Range,[1]; [23],0.25-2
same,MIC50,[1],0.5 µg/mL
same,MIC90,[1],2 µg/mL
same,MIC,[1]; in µg/mL,2
same,MFC50,[2],16 µg/mL
same,MFC90,[2],> 32 µg/mL
same,"Brain tissue fungal burden, Mean log CFUs ± the standard deviation",[3]; 0.35 mg/kg i.v.,1.22 ± 1.87 log CFUs
same,"Kidney tissue fungal burden, Mean log CFUs ± the standard deviation",[3]; 0.35 mg/kg i.v.,3.22 ± 1.26 log CFUs
same,MFC50,[4],> 32 µg/mL
same,MFC90,[4],> 32 µg/mL
same,MIC Range,[5]; in µg/mL,0.125-8
same,MIC50,[5],0.25 µg/mL
same,MIC90,[5],0.5 µg/mL
same,MFC50,[6],> 32 µg/mL
same,MFC90,[6],> 32 µg/mL
same,MIC Range,[7]; in µg/mL,0.125-8
same,MIC50,[7],0.25 µg/mL
same,MIC90,[7],0.5 µg/mL
same,MIC Range,[8]; in µg/mL,0.06-16
same,MIC50,[8],0.5 µg/mL
same,MIC90,[8],2 µg/mL
same,MFC50,[9],> 32 µg/mL
same,MFC90,[9],> 32 µg/mL
same,MIC Range,[10]; in µg/mL,1-64
same,MIC50,[10],32 µg/mL
same,MIC90,[10],32 µg/mL
same,MIC,[11],0.25 µg/mL
same,MFC50,[12],> 32 µg/mL
same,MFC90,[12],> 32 µg/mL
same,MFC50,[13],> 32 µg/mL
same,MFC90,[13],> 32 µg/mL
same,MFC50,[14],> 32 µg/mL
same,MFC90,[14],> 32 µg/mL
same,MIC Range,[15],0.5-16
same,MIC50,[15],1 µg/mL
same,MIC90,[15],4 µg/mL
same,MIC,[15],16 µg/mL
same,MFC,[16],> 16 µg/mL
same,MIC Range,[17]; Fluconazole-resistant C. albicans n = 7,0.125-2
same,MIC Range,[17]; [24],0.125-0.25
same,MIC50,[17]; [24],0.25 µg/mL
same,MIC90,[17]; [24],0.25 µg/mL
same,MIC,[17]; listed as Cas,1 (2×) and 2
same,"Kidney tissue fungal burden, Mean log CFUs ± the standard deviation",[18],3.11 ± 0.62 log CFUs
same,"Lung tissue fungal burden, Mean log CFUs ± the standard deviation",[18],3.41 ± 0.64 log CFUs
same,MFC50,[19],> 32 µg/mL
same,MFC90,[19],> 32 µg/mL
same,MFC,[19]; in µg/mL,>32
same,MFC50,[20],2 µg/mL
same,MFC90,[20],8 µg/mL
same,MFC,[20],> 32 µg/mL
same,MIC,"[21]; minimum effective concentration, read-out: MIC read as MEC",0.25 µg/mL
same,MFC Range,[22],>32
same,MFC50,[22],> 32 µg/mL
same,MFC90,[22],> 32 µg/mL
"OC(Cn1cncn1)(Cn1cncn1)c1ccc(F)cc1F [Fluconazole, fluconazole]",MIC50,[1],0.5 µg/mL
same,MIC90,[1],0.5 µg/mL
same,MIC,"[1]; listed as Flu, in µg/mL",0.25 and 0.5 and 1
same,MFC50,[2],> 32 µg/mL
same,MFC90,[2],> 32 µg/mL
same,"Brain tissue fungal burden, Mean log CFUs ± the standard deviation",[3]; 6 mg/kg i.v.,1.28 ± 1.95 log CFUs
same,"Kidney tissue fungal burden, Mean log CFUs ± the standard deviation",[3]; 6 mg/kg i.v.,3.87 ± 1.53 log CFUs
same,MFC Range,[4],> 64 µg/mL
same,MFC50,[4],> 64 µg/mL
same,MFC90,[4],> 64 µg/mL
same,MIC50,[5],> 64 µg/mL
same,MIC90,[5],> 64 µg/mL
same,MFC Range,[6],64 µg/mL
same,MFC50,[6],64 µg/mL
same,MFC90,[6],64 µg/mL
same,MIC50,[7],> 64 µg/mL
same,MIC90,[7],> 64 µg/mL
same,MIC50,[8],0.5 µg/mL
same,MIC90,[8],> 32 µg/mL
same,MFC Range,"[9]; Cr. neoformans strains, in µg/mL",2
same,MFC50,[9],> 64 µg/mL
same,MFC90,[9],> 64 µg/mL
same,MIC50,[10],> 64 µg/mL
same,MIC90,[10],> 64 µg/mL
same,MFC Range,[12],> 64 µg/mL
same,MFC50,[12],> 64 µg/mL
same,MFC90,[12],> 64 µg/mL
same,MFC50,[13],> 64 µg/mL
same,MFC90,[13],> 64 µg/mL
same,MFC Range,[14],> 64 µg/mL
same,MFC50,[14],> 64 µg/mL
same,MFC90,[14],> 64 µg/mL
same,MIC Range,[15],2-32
same,MIC50,[15],16 µg/mL
same,MIC90,[15],32 µg/mL
same,MIC,[15],16 µg/mL
same,MIC Range,[17]; [24],0.125-0.5
same,MIC50,[17]; [24],0.25 µg/mL
same,MIC90,[17]; [24],0.25 µg/mL
same,MIC,[17]; listed as Flu,32 (2×) and >32 (4×) and >64
same,MFC Range,[19]; [23],>64
same,MFC50,[19],> 64 µg/mL
same,MFC90,[19],> 64 µg/mL
same,MFC,[19]; in µg/mL,>64
same,MFC Range,"[20]; C. krusei strains, in µg/mL",>64
same,MFC50,[20],> 64 µg/mL
same,MFC90,[20],> 64 µg/mL
same,MFC,[20],> 64 µg/mL
same,MIC,[21]; read-out: MIC,0.25 µg/mL
same,MFC Range,[22],>64
same,MFC50,[22],> 64 µg/mL
same,MFC90,[22],> 64 µg/mL
